Reference: patent US20080065002A1, “Catheter for Localized Drug Delivery and/or Electrical Stimulation” (NEUROSYSTEC CORPORATION, priority 2006, published 2008)

Test: Expected decomposition of gacyclidine in solution
Type: physicochemical
Conditions: 72 hours at 37° C.
Method: The compatibility of gacyclidine in Ringer's Lactate (pH 6.0) in PTFE tubing at room temperature and at 37° C. was evaluated. Three sets of six segments each of PTFE tubing were used. Six samples were collected at each of three time intervals (6 hr, 23 hr and 72 hr). For each set of samples collected, three were incubated at ambient temperature and three were incubated at 37° C. A 16.5 ft. long segment of PTFE tubing (0.010″ ID, 0.018″ OD) was filled with 100 μM gacyclidine in Ringer's Lactate solution (pH 6.0) by use of a glass syringe. The two ends of the tubing were sealed with a paraffin wax vapor barrier. After incubating at room temperature or 37° C. for a specified time, the solution was pumped directly into a glass HPLC autosampler vial insert using an air-filled syringe. The PTFE tubing drug loss in 72 hours at room temperature was 1.3% and at 37° C. was 7.9%. […] The expected amount of decomposition expected in 72 hours at 37° C. is 8.0%.

For `CC1CCCCC1(c1cccs1)N1CCCCC1` (stereo not shown) [gacyclidine], which “expected amount of decomposition” value is on record?
Its value is 8.0%.
